Test results reported in patent publication US6903132B2, “Non-peptide GnRH agents, pharmaceutical compositions and methods for their use” (Agouron Pharmaceuticals, Inc., priority 2002, dated 2005).
pKi: −log10 of the molar value.

Assays:
Assay in all cases: Radioligand binding assay: inhibition of binding of 125I-GnRH-A to GnRH receptors (membranes)
human GnRH receptors = biological target: T1, human GnRH receptors (Homo sapiens, UniProt P30968); conditions: Human GnRH receptor; competition with 125I-GnRH-A; Ki calculated from IC50 (Cheng et al.)
T1 construct: expressed in transfected cells; host or cells: HEK 293
T1 sequence (P30968 1-328): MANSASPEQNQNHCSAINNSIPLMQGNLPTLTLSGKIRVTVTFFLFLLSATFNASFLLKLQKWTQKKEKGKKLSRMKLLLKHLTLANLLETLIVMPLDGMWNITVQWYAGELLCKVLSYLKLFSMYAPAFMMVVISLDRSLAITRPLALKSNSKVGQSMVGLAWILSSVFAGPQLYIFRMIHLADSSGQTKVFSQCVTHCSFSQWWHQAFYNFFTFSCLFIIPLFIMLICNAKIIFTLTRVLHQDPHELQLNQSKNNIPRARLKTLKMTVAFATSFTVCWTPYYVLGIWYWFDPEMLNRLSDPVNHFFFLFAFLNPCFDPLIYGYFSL
Procedure, shortened: (§1)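 Membranes from HEK 293 expressing mouse or human receptor, or rat pituitaries, incubated 1 h at RT with ~0.04–0.06 nM ¹²⁵I-[des-Gly¹⁰,D-Ala⁶]GnRH ethylamide and competitor (0.1–10,000 nM) in HEPES pH 7.4 with MgCl2, EDTA, BSA. Filtration onto PEI-soaked GF/C filters, scintillation counting; Ki from IC50 by Cheng–Prusoff.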

mouse GnRH receptors = biological target: T2, mouse GnRH receptors (Mus musculus, UniProt Q01776); conditions: Mouse GnRH receptor; competition with 125I-GnRH-A; Ki calculated from IC50 (Cheng et al.)
T2 construct: expressed in transfected cells; host or cells: HEK 293
T2 sequence (Q01776 1-327): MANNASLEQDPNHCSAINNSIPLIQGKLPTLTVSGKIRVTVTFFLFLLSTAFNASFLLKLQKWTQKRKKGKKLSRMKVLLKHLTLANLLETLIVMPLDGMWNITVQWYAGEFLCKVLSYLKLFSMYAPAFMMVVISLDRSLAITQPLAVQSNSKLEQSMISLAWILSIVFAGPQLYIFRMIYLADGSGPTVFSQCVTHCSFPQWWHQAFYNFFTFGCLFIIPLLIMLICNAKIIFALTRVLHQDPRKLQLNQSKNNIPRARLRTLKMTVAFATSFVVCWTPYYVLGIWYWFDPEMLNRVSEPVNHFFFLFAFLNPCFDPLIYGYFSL
Procedure, shortened: as §1

rat GnRH receptor = biological target: T3, rat GnRH receptor (Rattus norvegicus, UniProt P30969); conditions: competition with 125I-GnRH-A, Ki calculated from IC50 (Cheng et al.)
T3 construct: rat pituitaries (Pel Freez Biologicals, Rogers, Ark.) are homogenized in buffer A; tissue Pel Freez Biologicals; host or cells: rat pituitaries
T3 sequence (P30969 1-327): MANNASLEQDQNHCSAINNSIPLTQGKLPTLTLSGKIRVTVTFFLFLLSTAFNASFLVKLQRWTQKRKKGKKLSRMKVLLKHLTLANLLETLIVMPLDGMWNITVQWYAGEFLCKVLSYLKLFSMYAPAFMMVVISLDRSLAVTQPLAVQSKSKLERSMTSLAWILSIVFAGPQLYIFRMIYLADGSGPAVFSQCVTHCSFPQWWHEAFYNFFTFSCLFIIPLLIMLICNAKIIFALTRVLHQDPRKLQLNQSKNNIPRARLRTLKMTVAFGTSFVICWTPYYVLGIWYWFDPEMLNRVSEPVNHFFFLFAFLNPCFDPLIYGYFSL
Procedure, shortened: as §1

Row | pKi (human GnRH receptors) | pKi (mouse GnRH receptors) | pKi (rat GnRH receptor) | Structure (SMILES)
1 | 8.52 | 8.15 | 8.19 | Cc1cc2c(cc1Cc1ccc(C(=O)NNc3cc(C)c4c(C)nn(C)c4n3)o1)C(C)(C)CCC2(C)C [Example C1, 5-[(3,5,5,8,8-Pentamethyl-5,6,7,8-tetrahydro-2-naphthalenyl)methyl]-N′-(1,3,4-trimethyl-1H-pyrazolo[3,4-b]pyridin-6yl)-2-furohydrazide]
2 | 8.02 | 7.64 | 7.49 | COc1cc2c(cc1Cc1ccc(C(=O)NNc3cc(C)c4c(C)nn(C)c4n3)o1)C(C)(C)CCC2(C)C [Example C2, 5-[(3-Methoxy-5,5,8,8-tetramethyl-5,6,7,8-tetrahydro-2-naphthalenyl)methyl]-N′-(1,3,4-trimethyl-1H-pyrazolo[3,4-b]pyridin-6-yl)-2-furohydrazide]
